Assay results reported in patent US20130217595A1, “METHOD FOR THE IDENTIFICATION OF CATECHOL O-METHYLTRANSFERASE MODULATORS” (Hoffman-La Roche Inc., priority 2010, published 2013).

Biological target: human COMT (Homo sapiens, UniProt P21964)
Details: SAM limited (500 nM); Alexa Fluor 488-Nitrocatechol substrate; FIG. 5
Protocol: The term “kinetic readout” refers to the difference of the fluorescent signal measured at two certain time points in the linear part of an enzymatic reaction. One measurement is done at the beginning of the enzymatic reaction (start-point) and after an incubation time a second readout is performed (end-point). The final signal is then calculated in rfu/min as (rfu(end-point)—rfu(start-point))/incubation time. (rfu: relative fluorescence units)
384-well microtiter plate, Corning black with flat clear bottom, non binding surface, polystyrene (ref. 3655)
Reagent and Buffer Stock Solutions: • Buffer stock solutions: • M Phosphate buffer pH 7.6 (Na2HPO4 Fluka 71644, NaH2PO4 Merck 6346.0500) stored at 4° C. • 580 mM MgCl2 (Merck 1.0833.0250), stored at RT • 1 M CaCl2 stored at 4° C. • 65 mM DTT (Sigma D-0632), stored at −20° C. • Recombinant human COMT: prepared in house, stored at −80° C. • 4-Nitrocatechol-Alexa Fluor 488: prepared in house, 1.3 mM in DMSO, stored at RT in the dark • S-Adenosyl-methionine: 10 mM in H2O (Sigma-Aldirch A2804), stored at −20° C. […]
Readout: kinetic measurement on plate: vision TM reader (exc. 475(40) nm, em. 535(45) nm, intensity 7.5%, exposure time 1 s.

Sequence of human COMT (P21964 whole entry): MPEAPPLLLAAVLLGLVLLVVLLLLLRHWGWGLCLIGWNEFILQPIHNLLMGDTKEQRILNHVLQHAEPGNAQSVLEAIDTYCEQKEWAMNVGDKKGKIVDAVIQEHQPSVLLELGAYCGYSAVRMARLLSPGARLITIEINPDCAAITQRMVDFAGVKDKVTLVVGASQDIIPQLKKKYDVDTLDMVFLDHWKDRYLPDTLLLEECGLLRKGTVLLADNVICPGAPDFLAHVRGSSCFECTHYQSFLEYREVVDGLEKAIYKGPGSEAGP

Structure (SMILES): NCCc1ccc(O)c(O)c1 [dopamine]
- kinetic fluorescence readout plateau as a function of compound concentration: Decreasing plateaus were reached with increasing dopamine concentrations
